The source of these data is patent US11234979B2, “Heteroaryl compounds as muscarinic M1 receptor positive allosteric modulators” (SUVEN LIFE SCIENCES LIMITED, priority 2017, dated 2022).

SMILES strings stand for the structures.

The target in the assay is T1, recombinant human Muscarinic M1 receptor (Homo sapiens, UniProt P11229).
T1 construct: expressed in transfected cells
T1 sequence (P11229 1-460): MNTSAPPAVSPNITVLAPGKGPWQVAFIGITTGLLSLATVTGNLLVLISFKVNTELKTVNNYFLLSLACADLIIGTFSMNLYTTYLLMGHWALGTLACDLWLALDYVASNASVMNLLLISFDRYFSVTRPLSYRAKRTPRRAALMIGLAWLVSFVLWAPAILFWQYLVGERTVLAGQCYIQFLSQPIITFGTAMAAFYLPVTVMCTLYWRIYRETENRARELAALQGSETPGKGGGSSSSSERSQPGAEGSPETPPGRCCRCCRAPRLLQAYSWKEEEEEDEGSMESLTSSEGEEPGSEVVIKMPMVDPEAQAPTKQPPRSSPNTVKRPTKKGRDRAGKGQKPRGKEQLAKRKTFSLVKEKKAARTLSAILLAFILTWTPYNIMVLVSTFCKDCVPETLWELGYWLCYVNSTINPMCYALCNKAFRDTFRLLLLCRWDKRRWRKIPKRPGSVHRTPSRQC
The assay is described as follows: Allosteric potency EC50 for Muscarinic M1 receptor, CHO pCRE-Luc reporter assay with EC20 of acetylcholine. Conditions: CHO cells, in presence of EC20 of acetylcholine, 4 hours. Type of assay: cell-based. How it is done:
Determination of Allosteric Potency EC50 Values for Muscarinic M1 Receptor:
A stable CHO cell line expressing recombinant human Muscarinic M1 receptor and pCRE-Luc reporter system was used for cell-based assay. The assay offers a non-radioactive based approach to determine binding of a compound to GPCRs. In this specific assay, the level of intracellular cyclic AMP which is modulated by activation or inhibition of the receptor is measured. The recombinant cells harbor luciferase reporter gene under the control of cAMP response element.
The above cells were grown in 96 well clear bottom white plates in Hams F12 medium containing 10% fetal bovine serum (FBS). Prior to the addition of compounds or standard agonist, cells were serum starved overnight. Increasing concentrations of test compounds were added along with EC20 of acetylcholine in OptiMEM medium to the cells. The incubation was continued at 37° C. in CO2 incubator for 4 hours. Medium was removed and cells were washed with phosphate buffered saline. The cells were lysed and luciferase activity was measured in a Luminometer. Luminescence counts in each concentrations of test item were normalized to the acetylcholine induced maximum response and the data was analyzed using Graphpad software. EC50 values of the compounds were defined as the concentration required in stimulating the luciferase activity by 50% in presence of EC20 of acetylcholine.
A general note: A reporter such as luciferase makes a cellular process visible.
On to `Cn1cc(-c2ccc(Cc3cc(C(=O)N[C@H]4CCCC[C@@H]4O)n4ncccc34)cn2)cn1` [Example 35, N-(cis-1S,2S-2-Hydroxycyclohexyl)-5-[6-(1-methyl-1H-pyrazol-4-yl)-pyridin-3-ylmethyl]-pyrrolo[1,2-b]pyridazine-7-carboxamide], for which the EC50 – broadly, the midpoint of the concentration-response curve – came to 599 nM.
The result for `Cn1cc(-c2ccc(Cc3cc(C(=O)NC4CCOCC4)c4c(F)cccn34)cc2)cn1` [Example 50, N-(Tetrahydropyran-4-yl)-3-(4(1-methyl-1H-pyrazol-4-yl)-benzyl)-8-fluoroindolizine-1-carboxamide] reads 2530 nM; that for `COc1cccc(Cc2cc(C(=O)N[C@H]3CCCC[C@@H]3O)n3ncccc23)c1` [Example 6, N-(cis-1S,2S-2-Hydroxycyclohexyl)-5-(3-methoxybenzyl)-pyrrolo[1,2-b]pyridazine-7-carboxamide], 3030 nM.
The result for `O=C(N[C@H]1CCCC[C@@H]1O)c1cc(Cc2ccnc(Br)c2)c2cccnn12` [Example 29, N-(cis-1S,2S-2-Hydroxycyclohexyl)-5-(2-bromopyridin-4-ylmethyl)-pyrrolo[1,2-b]pyridazine-7-carboxamide] reads 1010 nM.
For `O=C(N[C@H]1CCCC[C@@H]1O)c1cc(Cc2ccc(F)cc2)c2cccnn12` [Example 8, N-(cis-1S,2S-2-Hydroxycyclohexyl)-5-(4-fluorobenzyl)-pyrrolo[1,2-b]pyridazine-7-carboxamide] the value was 863 nM; for `COc1ccc(Cc2cc(C(=O)N[C@H]3CCCC[C@@H]3O)n3ncccc23)c(F)c1` [Example 14, N-(cis-1S,2S-2-Hydroxycyclohexyl)-5-(2-fluoro-4-methoxybenzyl)-pyrrolo[1,2-b]pyridazine-7-carboxamide], 1080 nM.
Consider `O=C(N[C@H]1CCCC[C@@H]1O)c1cc(Cc2ccc(F)c(F)c2)c2cccnn12` [Example 15, N-(cis-1S,2S-2-Hydroxycyclohexyl)-5-(3,4-difluorobenzyl)-pyrrolo[1,2-b]pyridazine-7-carboxamide], for which the EC50 was 1510 nM.
For `O=C(NC1CCOCC1O)c1cc(Cc2cccc(F)c2)c2cccnn12` (stereo not drawn) [Example 30, N-(3-Hydroxytetrahydropyran-4-yl)-5-(3-fluorobenzyl)-pyrrolo[1,2-b]pyridazine-7-carboxamide], the EC50 was 1650 nM.
Take `Cn1cc(-c2ccc(Cc3cc(C(=O)N[C@H]4CCCC[C@@H]4O)c4c(F)cccn34)cc2)cn1` [Example 48, N-(cis-1S,2S-2-Hydroxycyclohexyl)-5-[4-(1-methyl-1H-pyrazol-4-yl)-benzyl]-8-fluoroindolizine-1-carboxamide]: the EC50 turned out to be 166 nM.
For `O=C(N[C@H]1CCCC[C@@H]1O)c1cc(Cc2ccc(F)cc2F)c2cccnn12` [Example 7, N-(cis-1S,2S-2-Hydroxycyclohexyl)-5-(2,4-difluorobenzyl)-pyrrolo[1,2-b]pyridazine-7-carboxamide] the value was 779 nM.
For `Cn1cc(-c2cc(Cc3cc(C(=O)N[C@H]4CCCC[C@@H]4O)n4ncccc34)ccn2)cn1` [Example 40, N-(cis-1S,2S-2-Hydroxycyclohexyl)-5-[2-(1-methyl-1H-pyrazol-4-yl)-pyridin-4-ylmethyl]-pyrrolo[1,2-b]pyridazine-7-carboxamide] the value was 1650 nM; for `O=C(N[C@H]1CCCC[C@@H]1O)c1cc(Cc2ccnc(Cl)c2)c2cccnn12` [Example 11, N-(cis-1S,2S-2-Hydroxycyclohexyl)-5-(2-chloro-pyridin-4-ylmethyl)-pyrrolo[1,2-b]pyridazine-7-carboxamide], 1300 nM; for `O=C(N[C@H]1CCCC[C@@H]1O)c1cc(Cc2cccc(Br)c2)c2cccnn12` [Example 27, N-(cis-1S,2S-2-Hydroxycyclohexyl)-5-(3-bromobenzyl)-pyrrolo[1,2-b]pyridazine-7-carboxamide], 1700 nM.
For the molecule `O=C(N[C@H]1CCCC[C@@H]1O)c1cc(Cc2cc(Br)ccc2F)c2cccnn12` [Example 2, N-(cis-1S,2S-2-Hydroxycyclohexyl)-5-(5-bromo-2-fluorobenzyl)-pyrrolo[1,2-b]pyridazine-7-carboxamide], the EC50 worked out at 419 nM.
For `O=C(NC1CCOCC1)c1cc(Cc2ccc(Cl)nc2)c2cccnn12` [Example 17, N-(Tetrahydropyran-4-yl)-5-(2-chloropyridin-5-ylmethyl)-pyrrolo[1,2-b]pyridazine-7-carboxamide] the value was 10000 nM; for `O=C(NC1CCOCC1)c1cc(Cc2ccc(-n3cccn3)cc2)c2cccnn12` [Example 22, N-(Tetrahydropyran-4-yl)-5-(4-pyrazol-1-ylbenzyl)-pyrrolo[1,2-b]pyridazine-7-carboxamide], 1760 nM; for `O=C(N[C@H]1CCCC[C@@H]1O)c1cc(Cc2cccc(F)c2)c2cccnn12` [Example 19, N-(cis-1S,2S-2-Hydroxycyclohexyl)-5-(3-fluorobenzyl)-pyrrolo[1,2-b]pyridazine-7-carboxamide], 2100 nM.
For `O=C(N[C@H]1CCCC[C@@H]1O)c1cc(Cc2ccccc2F)c2cccnn12` [Example 13, N-(cis-1S,2S-2-Hydroxycyclohexyl)-5-(2-fluorobenzyl)-pyrrolo[1,2-b]pyridazine-7-carboxamide] the value was 1760 nM; for `Cn1cc(-c2cccc(Cc3cc(C(=O)N[C@H]4CCCC[C@@H]4O)n4ncccc34)c2)cn1` [Example 38, N-(cis-1S,2S-2-Hydroxycyclohexyl)-5-[3-(1-methyl-1H-pyrazol-4-yl)-benzyl]-pyrrolo[1,2-b]pyridazine-7-carboxamide], 1530 nM.
For `COc1ccc(Cc2cc(C(=O)NC3CCOCC3O)c3c(F)cccn23)cc1` (stereo not drawn) [Example 47, N-(3-Hydroxytetrahydropyran-4-yl)-3-(4-methoxybenzyl)-8-fluoroindolizine-1-carboxamide] the value was 1110 nM; for `O=C(N[C@H]1CCCC[C@@H]1O)c1cc(Cc2ccc(Br)c(F)c2F)c2cccnn12` [Example 25, N-(cis-1S,2S-2-Hydroxycyclohexyl)-5-(2,3-difluoro-4-bromobenzyl)-pyrrolo[1,2-b]pyridazine-7-carboxamide], 2290 nM; for `COc1cc(Cc2cc(C(=O)N[C@H]3CCCC[C@@H]3O)n3ncccc23)ccc1F` [Example 12, N-(cis-1S,2S-2-Hydroxycyclohexyl)-5-(4-fluoro-3-methoxybenzyl)-pyrrolo[1,2-b]pyridazine-7-carboxamide], 1340 nM.
Consider `O=C(NC1CCOCC1O)c1cc(Cc2ccc(Br)cc2)c2cccnn12` (stereo not drawn) [Example 31, N-(3-Hydroxytetrahydropyran-4-yl)-5-(4-bromobenzyl)-pyrrolo[1,2-b]pyridazine-7-carboxamide], for which the EC50 was determined as 1030 nM.
For `Cn1cc(-c2ccc(Cc3cc(C(=O)N[C@H]4CCCC[C@@H]4O)n4ncccc34)c(F)c2F)cn1` [Example 36, N-(cis-1S,2S-2-Hydroxycyclohexyl)-5-[2,3-difluoro-4-(1-methyl-1H-pyrazol-4-yl)-benzyl]-pyrrolo[1,2-b]pyridazine-7-carboxamide] the value was 94 nM.
Take `Cn1cc(-c2ccc(Cc3cc(C(=O)NC4CCOCC4O)c4c(F)cccn34)cc2)cn1` (stereo not drawn) [Example 49, N-(3-Hydroxytetrahydropyran-4-yl)-3-(4-(1-methyl-1H-pyrazol-4-yl)-benzyl)-8-fluoroindolizine-1-carboxamide]: the EC50 was 1210 nM.
The result for `Cn1cc(-c2ccc(Cc3cc(C(=O)NC4COCCC4O)c4c(F)cccn34)cc2)cn1` (stereo not drawn) [Example 51, N-(4-Hydroxytetrahydropyran-3-yl)-3-(4-(1-methyl-1H-pyrazol-4-yl)-benzyl)-8-fluoroindolizine-1-carboxamide] reads 3650 nM; that for `COc1ccc(Cc2cc(C(=O)N[C@H]3CCCC[C@@H]3O)c3c(F)cccn23)cc1` [Example 44, N-(cis-1S,2S-2-Hydroxycyclohexyl)-3-(4-methoxybenzyl)-8-fluoroindolizine-1-carboxamide], 1590 nM.
Take `O=C(N[C@H]1CCCC[C@@H]1O)c1cc(Cc2ccc(F)cc2Br)c2cccnn12` [Example 24, N-(cis-1S,2S-2-Hydroxycyclohexyl)-5-(2-bromo-4-fluorobenzyl)-pyrrolo[1,2-b]pyridazine-7-carboxamide]: the EC50 amounted to 1180 nM.
On to `O=C(NC1CCOCC1O)c1cc(Cc2ccnc(Cl)c2)n2cccc(F)c12` (stereo not drawn) [Example 46, N-(3-Hydroxytetrahydropyran-4-yl)-3-(2-chloropyridine-4-ylmethyl)-8-fluoroindolizine-1-carboxamide], for which the EC50 stood at 463 nM.
As to `O=C(N[C@H]1CCCC[C@@H]1O)c1cc(Cc2ccc(Br)cc2)n2cccc(F)c12` [Example 41, N-(cis-1S,2S-2-Hydroxycyclohexyl)-3-(4-bromobenzyl)-8-fluoroindolizine-1-carboxamide], the EC50 was determined as 236 nM.
